Results from US20190000850A1, “COMBINATION CANCER THERAPY” (The Regents of the University of California, priority 2015, published 2019).
pIC50: −log10 of the molar value.

What was measured:
ATR = ATR (Homo sapiens, UniProt Q13535); conditions: read-out: IC50 against primary target (ATR); cited from earlier work
[1] = cited from earlier work
Jurkat cells [2] = experiment: Cell cycle histograms (DNA content), 24 h treatment; format: cell-based; conditions: dCF with 5 μM dA
Procedure: Cells were plated at the density of 0.5 million cells per ml per well in respective media/treatment. After 24 h incubation, cells were harvested and washed with PBS twice before staining with 0.5 ml of propidium iodide (Calbiochem, 1 μg/ml) solution containing Ribonuclease A and 0.3% Triton-X 100. The samples were protected from light before acquisition by flow cytometry.

Jurkat cells [3] = experiment: dATP/DNA-A biosynthesis with [^13C6]glucose and [^15N5]dA labeling; format: cell-based
Procedure: The precursor for DNA-A, dATP, can be produced from glucose via the de novo pathway and from salvage of extracellular dA either as nucleobase and/or intact nucleoside (FIG. 41A). […] Pharmacological perturbations were used to investigate the contributions of each dA salvage pathway (FIG. 41A). Jurkat cells were labeled for 18 h in the following conditions: untreated, ADA inhibitor Pentostatin (dCF) and DI-82, a specific dCK inhibitor. The labeled media contained […] [U-^13C6]glucose to represent the de novo contribution and 5 μM [^15N5]dA to represent salvage pathways. At the end of the incubation time, [^15N5]dA was undetectable in the culture media from the untreated Jurkat cells, reflecting the high ADA activity in these leukemia cells (FIG. 41B). In contrast, the culture media from dCF treated cells contained 1.5 μM [^15N5]dA, indicative of reduced dA catabolism.
(§1) Cells were transferred into RPMI-1640 without glucose and supplemented with 10% dialyzed FBS (Gibco) containing any of the following labeled substrates (Cambridge Isotopes): precursors for de novo [U-^13C6]glucose (Sigma-Aldrich) at 11 mM; precursors for purine salvage [U-^13C10,^15N5]dA (Cambridge Isotopes), [^15N5]dA (Cambridge Isotopes), [^15N5]dG (Cambridge Isotopes), [U-^13C5,^15N4]Hx (Cambridge Isotopes) at 5 μM or as indicated in the text; and precursors for pyrimidine salvage: [U-^13C9,^15N3]dC (Silantes) and [U-^13C10,^15N2]dT (Cambridge Isotopes) at 5 μM. The cells were incubated for 18 h or as indicated in the text before samples collection and processing.
(§2) Culture medium was collected 20 μL at the indicated time points. Stock solutions (10 mM) of [U-^13C10,^15N5]dA, and [^15N3]dC (Cambridge Isotope Laboratories) were prepared individually in dimethyl sulfoxide (DMSO), and stored at −20° C. before use as internal standards. The internal standards were diluted to 20 nM in methanol to generate internal standard solution. Calibration standards were prepared by spiking working stock solutions of [U-^13C10,^15N5]dA and [U-^13C9,^15N3]dC blank media to give concentrations in the 10 nM-10 μM range. Each 20 μL calibration standard sample was mixed with 60 μL of internal standard solution, mixed (30 s) and centrifuged (15,000 g, 10 min, 4° C.) and 60 μL of supernatant were transferred into a clean mass spec vial for LC-MS/MS-MRM analysis. Media samples were processed similarly and in parallel to the calibration standard samples.
Cells were collected into microcentrifuge tube and centrifuged (450×g, 4 min, 4° C.). The supernatant was carefully aspirated. The cells were washed twice by the addition of 1 mL of cold PBS and centrifugation (450×g, 4 min 4° C.). PBS washes were aspirated. Thereafter, cells were lysed in 40 μL of 70% methanol/water (v/v), vortexed (30 s) and incubated on ice for 10 min. […]

Chk1 = target: T1, Chk1 (Homo sapiens, UniProt O14757); conditions: read-out: IC50 against primary target (Chk1); cited from earlier work
T1 sequence (O14757 1-476): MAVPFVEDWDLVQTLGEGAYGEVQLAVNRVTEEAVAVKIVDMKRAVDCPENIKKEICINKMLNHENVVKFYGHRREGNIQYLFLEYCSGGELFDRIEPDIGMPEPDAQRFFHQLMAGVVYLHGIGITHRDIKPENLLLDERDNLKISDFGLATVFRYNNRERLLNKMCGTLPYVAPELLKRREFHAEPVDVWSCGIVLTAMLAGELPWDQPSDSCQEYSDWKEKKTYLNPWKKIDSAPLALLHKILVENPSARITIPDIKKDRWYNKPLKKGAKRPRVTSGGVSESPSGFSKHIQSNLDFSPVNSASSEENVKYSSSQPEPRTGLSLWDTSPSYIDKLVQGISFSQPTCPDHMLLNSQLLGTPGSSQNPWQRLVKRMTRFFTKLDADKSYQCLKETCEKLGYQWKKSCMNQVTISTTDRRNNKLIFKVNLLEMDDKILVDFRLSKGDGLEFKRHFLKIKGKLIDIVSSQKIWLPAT

ATM = ATM (Homo sapiens, UniProt Q13315); conditions: cited from earlier work
leukemia cell growth = experiment: IC50 (cytotoxicity assay) of RNR inhibitors, Table 1; format: cell-based; conditions: for pIC50: 3-AP: cell type independent
Procedure: Cells were plated in a 384-well plate (1,000 cells/well for suspension cell lines and 500 cells/well for adherent cell lines in 30 μL). For suspension cell lines, the plate was incubated in 37° C. for 1 h to let the cells settle. For adherent cell lines, the plate was incubated overnight to allow the cells to seed. During incubation, drugs were diluted to desired concentration by serial dilution, vehicle condition was created by adding equivalent amount of DMSO. After incubation, 10 μL of diluted drugs were added to each well, and incubated for 72 h. After incubation, Cell TiterGlo reagent was added to each well according to manufacturer's instructions (Promega, CellTiter-Glo® Luminescent Cell Viability Assay). The plates were shaken for 2 min and incubated in dark for 8 min. Luminescence readings were obtained with luminometer (Molecular devices, SpectraMax).

Jurkat cells [4] = experiment: dGTP/DNA-G biosynthesis with [^13C6]glucose and [^15N5]dG labeling; format: cell-based
Procedure: Another approach to study dGTP/DNA-G biosynthetic pathways is through anticancer therapy Forodesine (BCX-1777). The precursor for DNA-G, dGTP, can be produced from glucose via the de novo pathway and from salvage of extracellular dG either as nucleobase and/or intact nucleoside (FIG. 42A). […] Jurkat cells were labeled for 18 h in the following conditions: untreated, PNP inhibitor (BCX-1777) and DI-82, a specific dCK inhibitor. The labeled media contained […] [U-^13C6]glucose to represent the de novo contribution and 5 μM [^15N5]dG to represent salvage pathways. At the end of the incubation time, [^15N5]dG decreased nearly three orders of magnitude in the culture media from the untreated Jurkat cells, reflecting the high PNP activity in these leukemia cells (FIG. 42B). In contrast, the culture media from BCX-1777 treated cells contained 1.8 μM [^15N5]dG, indicative of reduced dG catabolism.
as §1, §2
Cells were collected into microcentrifuge tube and centrifuged (450×g, 4 min, 4° C.). The supernatant was carefully aspirated. The cells were washed twice by the addition of 1 mL of cold PBS and centrifugation (450×g, 4 min 4° C.). PBS washes were aspirated. […]

CCRF-CEM T-ALL cells = experiment: EdU pulse assay of cell cycle progression after release from G1 arrest; format: cell-based; conditions: synchronized CEM cells released from G1
Procedure: Following release from G1, cells progress to early, mid and late S phase (defined as S1, S2 and S3, respectively) and G2/M. By 18 h following release in drug-free media, 42.5% of cells progressed to S3. […] Thus, dCK represents a resistance mechanism to ATR inhibition.
Cells were treated with a CDK4/6 inhibitor, PD-0332991 (Selleckchem) for 18 h to arrest in G1 phase. Subsequently, cells were washed and released into fresh media containing 10% FBS to monitor the progression of synchronized cells throughout the cell cycle by flow cytometry analysis.
For measuring cell cycle progression of synchronous population of cells, cells were first arrested in G1 phase, then washed and released in treated media. Before collecting and fixing cells at various time points, cells were pulse-labeled with 10 μM EdU for 1 h, and then click-labeled with azide-Alexa Fluor 647 (Invitrogen; Click-iT EdU Flow cytometry kit) according to manufacturer's protocol. Total DNA content was assessed by staining with FxCycle-Violet (Invitrogen) at 1 μg/mL final concentration in PBS containing 2% FBS.

CEM cells = experiment: Mass spectrometric assay of de novo (RNR) and salvage (dCK) contribution to dCTP and DNA-C; format: cell-based; conditions: G1 released CEM cells
Procedure: To analyze the differential utilization of de novo and nucleotide biosynthetic salvage pathways, cultured cells were incubated with stable isotope labeled DNA precursors. […] Extracted dNTP and DNA were analyzed in a triple quadrupole mass spectrometer (QQQ) using multiple reaction monitoring (MRM). The first (Q1) and third (Q3) quadrupoles function as mass filters while the second (Q2) quadrupole serves as a collision chamber. […] In Q2, the glycosidic bond of the selected dC is cleaved, releasing a protonated nucleobase (NB) fragment and a neutral deoxyribose (dR) molecule. The m/z specific NB fragments from dC is separated in Q3 and detected to generate ion chromatograms. […] Each identifier corresponded to a specific biosynthetic pathway and is defined as [x;y], where “x” is the number of heavy isotope-labeled atoms in NB and “y” is the number of heavy isotope atoms in dR. […] According to current biochemical maps of nucleotide metabolism, the [7;5] identifier can only arise from salvaging [U-^13C9,^15N3]dC into newly synthesized DNA. In contrast, a dC with a [0,5] identifier is a product of the de novo pathway. The ratio of the peak areas in the ion chromatograms of salvage [7;5] and de novo [0;5] identifiers describes the relative contributions of the two biosynthetic routes to the dCTP pool used for DNA replication.
Genomic DNA was extracted using the Quick-gDNA MiniPrep kit (Zymo Research, D3021) and hydrolyzed to nucleosides using the DNA Degradase Plus kit (Zymo Research, E2021) following manufacturer-supplied instructions. In the final step of DNA extraction, 50 μL of water was used to elute the DNA. A nuclease premix solution was prepared by mixing 10× buffer, DNA degradase Plus™ and water in the ratio of 2.5/1/1.5 (v/v/v). DNA hydrolysis reaction was prepared in mass spec vials by mixing 5 μL of the nuclease premix solution (5 U of enzyme) and 20 μL of eluted genomic DNA, the total volume becomes 25 μL. The samples were tapped and flicked downward prior to overnight before incubation at 37° C.
Cells were collected into microcentrifuge tube and centrifuged (450×g, 4 min, 4° C.). The supernatant was carefully aspirated. The cells were washed twice by the addition of 1 mL of cold PBS and centrifugation (450×g, 4 min 4° C.). PBS washes were aspirated. Thereafter, cells were lysed in 40 μL of 70% methanol/water (v/v), vortexed (30 s) and incubated on ice for 10 min. Then 40 μL of chloroform (Fisher) was added, vortexed (30 s) and incubated on ice for another 10 min. The samples were then centrifuged at max speed for 10 min at 4° C. Finally, the supernatant was transferred (≈25 μL) into a mass spec vial.
For genomic DNA and media analysis, an aliquot of DNA hydrolysis or media samples (20 μL) was injected directly onto a porous graphitic carbon column (Thermo Fisher Scientific Hypercarb, 100×2.1 mm, 5 μm particle size) equilibrated in solvent A (water/acetonitrile/formic acid, 95/5/0.2, v/v/v) and eluted (200 μL/min) with an increasing concentration of solvent B (acetonitrile/water/formic acid, 90/10/0.2, v/v/v): min/% B/flow rate (μL/min); 0/0/200, 5/0/200, 10/15/200, 20/15/200, 21/40/200, 25/50/200, 26/100/700, 30/100/700, 3I/O/700, 34/0/700, 35/0/200).

[5] = Solubility study in phosphate buffer solution; format: physicochemical; conditions: aqueous buffer
[6] = tested on: p185^BCR-ABLArf^−/− pre-B cells; experiment: dCTP pool and DNA-C measurement with [U-^13C9,^15N3]dC and [U-^13C6]glucose; format: cell-based, mouse; conditions: 3, 6, 9 and 12 h treatment
Source text: Therefore, p185^BCR-ABLArf^−/− pre-B cells were labeled with [U-^13C9,^15N3]dC and [U-^13C6]glucose to measure the contribution of salvage pathway via dCK and de novo pathway via RNR, respectively.

Sequence of ATR (Q13535 whole entry): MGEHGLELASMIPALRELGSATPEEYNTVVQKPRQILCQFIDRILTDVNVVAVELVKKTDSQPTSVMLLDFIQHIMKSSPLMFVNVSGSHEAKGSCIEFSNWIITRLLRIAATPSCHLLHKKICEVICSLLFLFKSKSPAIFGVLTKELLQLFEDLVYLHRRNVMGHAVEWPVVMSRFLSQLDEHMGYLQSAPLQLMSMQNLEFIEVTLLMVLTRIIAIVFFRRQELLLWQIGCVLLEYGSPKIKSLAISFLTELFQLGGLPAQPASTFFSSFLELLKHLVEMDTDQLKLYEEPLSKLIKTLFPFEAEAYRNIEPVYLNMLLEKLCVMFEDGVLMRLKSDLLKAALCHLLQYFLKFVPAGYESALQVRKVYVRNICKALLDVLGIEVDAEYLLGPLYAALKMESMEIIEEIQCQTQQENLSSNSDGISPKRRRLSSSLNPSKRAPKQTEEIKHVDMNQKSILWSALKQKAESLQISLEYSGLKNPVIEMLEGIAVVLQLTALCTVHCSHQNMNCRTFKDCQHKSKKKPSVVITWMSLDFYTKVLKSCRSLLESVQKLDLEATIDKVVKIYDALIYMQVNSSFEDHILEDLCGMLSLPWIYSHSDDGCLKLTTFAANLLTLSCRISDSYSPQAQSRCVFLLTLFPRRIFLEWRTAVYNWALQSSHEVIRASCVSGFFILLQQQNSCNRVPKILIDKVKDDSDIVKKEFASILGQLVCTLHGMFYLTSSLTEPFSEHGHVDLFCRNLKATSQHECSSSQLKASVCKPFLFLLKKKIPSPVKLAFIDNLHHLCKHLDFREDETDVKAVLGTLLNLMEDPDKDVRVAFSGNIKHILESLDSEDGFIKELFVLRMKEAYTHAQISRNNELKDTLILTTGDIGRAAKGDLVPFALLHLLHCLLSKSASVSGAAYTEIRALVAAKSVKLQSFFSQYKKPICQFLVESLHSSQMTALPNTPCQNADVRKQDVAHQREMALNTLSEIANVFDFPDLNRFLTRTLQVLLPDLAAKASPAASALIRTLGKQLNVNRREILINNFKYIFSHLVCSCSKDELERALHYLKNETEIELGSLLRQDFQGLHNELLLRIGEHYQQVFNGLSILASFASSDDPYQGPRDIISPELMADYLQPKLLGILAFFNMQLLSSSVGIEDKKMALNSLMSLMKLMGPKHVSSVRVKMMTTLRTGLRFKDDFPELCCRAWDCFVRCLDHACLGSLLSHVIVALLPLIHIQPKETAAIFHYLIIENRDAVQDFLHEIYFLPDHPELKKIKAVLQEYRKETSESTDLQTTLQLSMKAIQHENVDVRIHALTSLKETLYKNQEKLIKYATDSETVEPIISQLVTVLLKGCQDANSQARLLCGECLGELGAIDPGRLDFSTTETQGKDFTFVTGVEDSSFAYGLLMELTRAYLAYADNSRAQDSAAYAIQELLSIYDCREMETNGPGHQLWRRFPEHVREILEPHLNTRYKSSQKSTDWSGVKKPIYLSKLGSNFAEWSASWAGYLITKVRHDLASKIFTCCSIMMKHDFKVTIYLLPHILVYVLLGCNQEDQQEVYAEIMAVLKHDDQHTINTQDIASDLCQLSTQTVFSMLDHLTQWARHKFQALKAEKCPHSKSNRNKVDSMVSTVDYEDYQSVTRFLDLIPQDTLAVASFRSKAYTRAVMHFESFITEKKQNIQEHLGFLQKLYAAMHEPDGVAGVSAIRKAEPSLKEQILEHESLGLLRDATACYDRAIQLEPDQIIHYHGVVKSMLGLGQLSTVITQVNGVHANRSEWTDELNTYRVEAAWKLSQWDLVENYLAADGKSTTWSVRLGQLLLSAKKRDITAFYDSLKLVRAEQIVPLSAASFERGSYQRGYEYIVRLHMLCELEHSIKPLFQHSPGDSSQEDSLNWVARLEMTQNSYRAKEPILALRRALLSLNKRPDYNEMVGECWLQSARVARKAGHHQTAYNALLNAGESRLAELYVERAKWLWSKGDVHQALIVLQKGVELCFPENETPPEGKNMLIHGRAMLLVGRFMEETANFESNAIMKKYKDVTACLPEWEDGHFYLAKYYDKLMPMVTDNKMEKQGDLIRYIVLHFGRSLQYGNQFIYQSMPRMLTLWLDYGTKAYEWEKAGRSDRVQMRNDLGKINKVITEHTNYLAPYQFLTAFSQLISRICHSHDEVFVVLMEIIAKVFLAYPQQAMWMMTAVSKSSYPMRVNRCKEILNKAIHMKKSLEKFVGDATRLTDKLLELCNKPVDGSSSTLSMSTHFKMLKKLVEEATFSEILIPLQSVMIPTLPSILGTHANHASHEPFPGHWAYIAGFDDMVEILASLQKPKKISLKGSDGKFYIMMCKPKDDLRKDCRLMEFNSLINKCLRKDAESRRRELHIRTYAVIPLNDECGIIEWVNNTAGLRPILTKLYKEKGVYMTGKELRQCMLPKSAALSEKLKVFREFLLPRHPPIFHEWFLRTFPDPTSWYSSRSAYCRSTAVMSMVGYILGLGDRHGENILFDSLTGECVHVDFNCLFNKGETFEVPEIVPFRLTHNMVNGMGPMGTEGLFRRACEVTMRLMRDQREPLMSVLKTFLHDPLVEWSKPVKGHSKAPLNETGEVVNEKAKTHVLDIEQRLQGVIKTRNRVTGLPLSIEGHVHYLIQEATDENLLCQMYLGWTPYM
Sequence of ATR (Q8WXE1 whole entry partner): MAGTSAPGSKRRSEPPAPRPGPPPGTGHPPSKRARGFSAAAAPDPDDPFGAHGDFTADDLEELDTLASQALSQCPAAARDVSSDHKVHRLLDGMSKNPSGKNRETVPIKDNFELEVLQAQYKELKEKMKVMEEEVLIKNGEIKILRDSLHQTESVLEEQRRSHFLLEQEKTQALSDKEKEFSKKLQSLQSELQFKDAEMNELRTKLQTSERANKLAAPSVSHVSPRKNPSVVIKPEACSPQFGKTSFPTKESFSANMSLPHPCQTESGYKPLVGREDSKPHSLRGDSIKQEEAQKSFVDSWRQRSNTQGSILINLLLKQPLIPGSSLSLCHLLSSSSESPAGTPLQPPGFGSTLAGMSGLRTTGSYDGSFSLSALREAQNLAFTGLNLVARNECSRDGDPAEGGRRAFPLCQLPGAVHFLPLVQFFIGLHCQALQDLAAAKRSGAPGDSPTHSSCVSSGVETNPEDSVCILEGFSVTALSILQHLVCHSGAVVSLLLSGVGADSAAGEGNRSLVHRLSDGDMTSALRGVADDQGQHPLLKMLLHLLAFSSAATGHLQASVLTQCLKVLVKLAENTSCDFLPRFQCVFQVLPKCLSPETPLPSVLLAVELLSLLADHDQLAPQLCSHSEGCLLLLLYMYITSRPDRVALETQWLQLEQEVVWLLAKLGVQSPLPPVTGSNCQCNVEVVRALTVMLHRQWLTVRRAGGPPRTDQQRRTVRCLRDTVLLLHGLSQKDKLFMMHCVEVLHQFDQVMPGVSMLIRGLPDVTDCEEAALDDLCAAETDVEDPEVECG

Cn1c(=O)n(-c2ccc(C(C)(C)C#N)cc2)c2c3cc(-c4cnc5ccccc5c4)ccc3ncc21 [NVP-BEZ235]
pIC50 (ATR): 7.68

CCN1CCC(Oc2c(C#N)ncc3[nH]c4ncccc4c23)CC1 [GDC0425]
oral bioavailability [1]: orally bioavailable

OC[C@H]1O[C@@H](n2cnc3c2NC=NC[C@H]3O)C[C@@H]1O [dCF, Pentostatin]
reduction of the proportion of cells in G2/M (Jurkat cells [2]): more than 2 fold | reduction of the proportion of cells in S-phase (Jurkat cells [2]): 3 fold | [^15N5]dA in the culture media at the end of incubation (Jurkat cells [3]; 18 h, 10 μM dCF, 5 μM [^15N5]dA added): 1.5 µM | increase of dATP pools compared to untreated cells (Jurkat cells [3]; 18 h, ADA inhibition by dCF): 6 fold | increase in dA salvage into dATP (Jurkat cells [3]; 18 h, dCF): over 190 fold

COc1cc(Nc2cnc(C#N)c(O[C@H](C)CN(C)C)n2)ncc1-c1cnn(C)c1 [CCT244747]
oral bioavailability [1]: bioavailable) | pIC50 (Chk1): 6.77 to 7.54

N#Cc1cc2c(cn1)[nH]c1ncc(-c3ccc(CN4CCCCC4)cc3)cc12 [GNE-900]
pIC50 (Chk1): 9.00

CS(=O)(=O)c1ccc(-c2cnc(N)c(C(=O)Nc3ccccc3)n2)cc1 [VE-821]
pIC50 (ATM): 4.47 | pIC50 (ATR): 7.72

C[C@@H]1COCCN1c1cc(C2([S@](C)(=N)=O)CC2)nc(-c2cc[nH]c3nccc2-3)n1 [AZD6738]
oral bioavailability [1]: bioavailable)

Cc1cn([C@H]2C[C@H](O)[C@@H](CO)O2)c(=O)[nH]c1=O [Thymidine]
IC50 (leukemia cell growth; cell type dependent, range printed with two units (μM to mM)): 50 to 5000 µM

O=c1[nH]cnc2c([C@@H]3N[C@H](CO)[C@@H](O)[C@H]3O)c[nH]c12 [BCX-1777, Forodesine]
[^15N5]dG in the culture media at the end of incubation (Jurkat cells [4]; 18 h, 5 nM BCX-1777, 5 μM [^15N5]dG added): 1.8 µM | increase in dG salvage into dGTP (Jurkat cells [4]; 18 h, BCX-1777): over 300 fold | increase of dGTP pools compared to untreated cells (Jurkat cells [4]; 18 h, PNP inhibition by BCX-1777): 6 fold

NC(=O)NO [Hydroxyurea]
pIC50 (leukemia cell growth): 4.41

Cc1occc(=O)c1[O-].Cc1occc(=O)c1[O-].Cc1occc(=O)c1[O-].[Ga+3] [Gallium Maltolate]
pIC50 (leukemia cell growth): 4.52

N[C@@H]1CCCN(c2c(Br)cnc3[nH]cc(NC(=O)C4CC4)c23)C1 [GDC0575]
oral bioavailability [1]: orally bioavailable

COc1ccc(-c2nc(C(C)Sc3nc(N)cc(N)n3)c(C)s2)cc1OCCNS(C)(=O)=O (centres unmarked) [DI-82, N-(2-(5-(4-(1-((4,6-diaminopyrimidin-2-yl)thio)ethyl)-5-methylthiazol-2-yl)-2-methoxyphenoxy)ethyl)methanesulfonamide]
effect on cell cycle progression (CCRF-CEM T-ALL cells): does not significantly impair cell cycle progression | contribution of dCK to dCTP and DNA-C (CEM cells): completely abrogates | solubility [5]: < 300 µg/mL | effect on the increased dATP pool level caused by dCF (Jurkat cells [3]; 1 μM DI-82 added to dCF): completely reversed | effect on the increased dGTP pool level caused by BCX-1777 (Jurkat cells [4]; 1 μM DI-82 added to BCX-1777): completely reversed | dCTP pool [6]: nearly depleted
